Tests used:
[1] = UV absorption properties (absorption maximum, shoulder, absorption coefficient); assay type: physicochemical
Text: Tiliroside absorbs in the UV-B region, i.e. in the wavelength range between 290 and 320 nm, with an absorption maximum at λmax=316 nm, and additionally in the UV-A region, i.e. in the wavelength range between 320 and 400 nm, with an absorption shoulder at λsh=349 nm. The absorption coefficient ε at λmax=316 nm is ε=23260 and at λsh=349 nm is ε=13500.
The absorption coefficient at this wavelength is 23420.

[2] = Inherent colour of the substance; assay type: physicochemical
Text: The weak inherent colour is, for example, a major advantage if an inherent colour of the ingredients is undesired in the products for aesthetic reasons.

[3] = assay type: physicochemical
Text: The invention furthermore relates to the stabilisation of UV filters. A known and effective class of light-protection filter substances is formed by the dibenzoylmethane derivatives. However, it is disadvantageous that these substances are decomposed very easily by UV light and their protective properties are thus lost. An example of a commercially available light-protection filter from this class of compounds which may be mentioned is 4-(tert-butyl)-4′-methoxydibenzoylmethane, which has the structure shown below. [drawing 22]
Tiliroside can be used for stabilisation here as the pure substance or in the form of a plant extract. In a preferred embodiment, tiliroside is used in the form of a plant extract, a purified plant extract or in the form of the pure substance prepared from the plant extract.

## O=C(C=Cc1ccc(O)cc1)OC[C@H]1O[C@@H](Oc2c(-c3ccc(O)cc3)oc3cc(O)cc(O)c3c2=O)[C@H](O)[C@@H](O)[C@@H]1O [Tiliroside, kaempferol 3-(6″-p-coumarylglucoside)]
[1]; UV-A region (320 to 400 nm)
  absorption shoulder λsh: 349 nm
[1]; UV-A region, tiliroside compared with Eusolex 6300
  absorption in the UV-A region (in words): significantly better absorption properties in the UVA region
[1]; UV-B region
  absorption maximum λmax: 316 nm
[1]; at the absorption maximum in the UV-B region (tiliroside 316 nm, Eusolex 6300 300 nm)
  absorption coefficient ε at λmax: 23260
[1]; at the shoulder λsh=349 nm, UV-A region
  absorption coefficient ε at λsh: 13500
[2]
  inherent colour: only a weak inherent colour
[3]
  stabilising action for dibenzoylmethanes: particularly high stabilising action
